# According to patent US20250179120A1, “CYCLIC PEPTIDE OR SALT THEREOF, AND MDMX INHIBITOR” (FUJIFILM Corporation, priority 2022, published 2025):
# Numbered stars: 1 amine (or outer) side, 2 acyl side, 3 side chain; on linkers, the order of the positions; unused ones are H or OH. Square brackets hold non-standard residues; d marks the D form. Peptide text beside a SMILES is read from it. Ala(4-thiazolyl) = N[C@@H](Cc1cscn1)C(=O)O; Phe(4-Cl) = N[C@@H](Cc1ccc(Cl)cc1)C(=O)O; X1 = O=C(CSC[C@H](Cc1cscn1)N[*:1])[*:2]; Phe(4-F) = N[C@@H](Cc1ccc(F)cc1)C(=O)O; NHCH2CH2SCH2CO = O=C(CSCCN[*:1])[*:2]; NMeF = CN[C@@H](Cc1ccccc1)C(=O)O; Tle = CC(C)(C)[C@H](N)C(=O)O; hSer = N[C@@H](CCO)C(=O)O; NMeA = CN[C@@H](C)C(=O)O; dNMeA = CN[C@H](C)C(=O)O; Nme = COCCNCC(=O)O
# Assay: Evaluation of cell membrane permeability (MDCKII permeation test, Papp)
# Type: in vitro ADME
# Details: MDCK, MDCKII cell layer, 10 μM in HBSS, apical to basal, 37° C.; for Papp A→B: 2 hours
# Procedure: Evaluation of the cell membrane permeability of the cyclic peptide according to the embodiment of the present invention was carried out.
# 300 μL of MDCKII cells (ECACC standard cell line) were seeded at a density of 1.0×10^6 cells/mL onto an insert (dedicated for a 24-well plate, pore diameter: 3.0 μm, manufactured by Corning Incorporated) and cultured at 37° C. in a 5% CO2 environment. After three days, the electric resistance value of the cell layer was measured (using a measuring device), and it was confirmed that the cell layer had high barrier properties (>100 Ω·cm^2).
# After the insert was washed by being immersed in HBSS (phenol red-free, the same applies hereinafter), 200 μL of a sample prepared in 10 μM/HBSS was added thereto, and the insert was allowed to stand in a low-adsorption 24-well plate containing 900 μL of HBSS (37° C., 5% CO2). After 2 hours, each liquid of an upper layer (apical) and a lower layer (basal) of the insert (10 μL for apical and 500 μL for basal) was recovered. After testing, no leakage was confirmed with Lucifer Yellow, which is a non-permeable fluorescent dye.
# The device used was LC/MS/MS (triple quadrupole type).
# Eluent: A) 5 mM ammonium formate, 0.2% formic acid/H2O, B) 0.1% formic acid/MeCN, flow rate: 0.5 mL/min, injection volume: 2 μL, column: ACQUITY UPLC BEH C18 Column, 1.7 μm, 2.1 mm×50 mm (manufactured by Waters Corporation), temperature: 70° C., gradient (% B): 2% (0 to 0.5 min)→98% (2 to 3 min)→2% (3 to 5 min), ionization: ESI, detection mode: MRM (positive)
# Based on the calculation expression shown in Expression (1), a permeability coefficient Papp, which represents the membrane permeability, was calculated from each quantitative value.
# C0: initial concentration (10 μM)
# S: surface area (0.33 cm^2) of single layer membrane
# dC/dt: concentration change at basal [μM/s]
Structure (SMILES),Papp A→B [×10⁻⁶ cm/s],"Papp A→B at 2 h, 10 μM (dog) [×10⁻⁶ cm/s]"
COCC[C@@H]1NC(=O)[C@H](C)N(C)C(=O)[C@H](Cc2ccccc2)N(C)C(=O)[C@H](Cc2ccc(Cl)cc2)NC(=O)[C@H]([C@@H](C)O)NC(=O)[C@H](Cc2ccc(F)cc2)NC(=O)[C@@H]2CCCN2C(=O)CSCCNC(=O)[C@H](C)N(C)C1=O [compound 4] (cyclo([NMeA][hSer](Me)[NMeA][NHCH2CH2SCH2CO]P[Phe(4-F)]T[Phe(4-Cl)][NMeF])),0.1 to 0.25,–
"COCC[C@@H]1NC(=O)[C@H]2CCCN2C(=O)[C@H](Cc2ccccc2)N(C)C(=O)[C@H](Cc2ccc(Cl)cc2)NC(=O)[C@H](C(C)(C)C)NC(=O)[C@H](Cc2ccc(F)cc2)NC(=O)[C@H](C)N(C)C(=O)[C@@H](C)N(C)C(=O)[C@H](Cc2cscn2)NC(=O)[C@H](C)N(C)C1=O [Comparative Example 1, reference compound] (cyclo([Ala(4-thiazolyl)][dNMeA][NMeA][Phe(4-F)][Tle][Phe(4-Cl)][NMeF][dP][hSer](Me)[NMeA]))",–,< 0.1
COCC[C@@H]1NC(=O)[C@@H](C)N(C)C(=O)[C@H](Cc2ccccc2)N(C)C(=O)[C@H](Cc2ccc(Cl)cc2)NC(=O)[C@H]([C@@H](C)O)NC(=O)[C@H](Cc2ccc(F)cc2)NC(=O)[C@@H]2CCCN2C(=O)CSCCNC(=O)[C@H](C)N(C)C1=O [compound 3] (cyclo([NMeA][NHCH2CH2SCH2CO]P[Phe(4-F)]T[Phe(4-Cl)][NMeF][dNMeA][hSer](Me))),0.25 to 0.5,–

# Results, then the compound that gave them:
Papp A→B [×10⁻⁶ cm/s],"Papp A→B at 2 h, 10 μM (dog) [×10⁻⁶ cm/s]",Structure (SMILES)
0.1 to 0.25,–,COCC[C@@H]1NC(=O)[C@H](C)N(C)C(=O)[C@H](Cc2ccccc2)N(C)C(=O)[C@H](Cc2ccc(Cl)cc2)NC(=O)[C@H]([C@@H](C)O)NC(=O)[C@H](Cc2ccc(F)cc2)NC(=O)CN(CCOC)C(=O)CSC[C@H](Cc2cscn2)NC(=O)[C@H](C)N(C)C1=O [compound 6] (cyclo([NMeA][hSer](Me)[NMeA][X1][Nme][Phe(4-F)]T[Phe(4-Cl)][NMeF]))
0.1 to 0.25,–,COCC[C@@H]1NC(=O)[C@H](C)N(C)C(=O)[C@H](Cc2ccccc2)N(C)C(=O)[C@H](Cc2ccc(Cl)cc2)NC(=O)[C@H]([C@@H](C)O)NC(=O)[C@H](Cc2ccc(F)cc2)NC(=O)[C@@H]2CCCN2C(=O)CSC[C@H](Cc2cscn2)NC(=O)[C@H](C)N(C)C1=O [compound 5] (cyclo([NMeA][hSer](Me)[NMeA][X1]P[Phe(4-F)]T[Phe(4-Cl)][NMeF]))
